Test [1] deals with Human α2δ-1 subunit of Cav2.2 calcium channel (Homo sapiens, UniProt P54289). Put plainly: Binding assay to human α2δ-1 subunit of Cav2.2 calcium channel ([3H]-Gabapentin). The following applies: human α2δ-1 enriched membranes, [3H]-Gabapentin 15 nM; read-out: Ki(nM) alpha2delta Hum. On the procedure:
Binding Assay to Human α2δ-1 Subunit of Cav2.2 Calcium Channel
Human α2δ-1 enriched membranes (2.5 μg) were incubated with 15 nM of radiolabeled [3H]-Gabapentin in assay buffer containing Hepes-KOH 10 mM, pH 7.4. NSB (non-specific binding) was measured by adding 10 μM pregabalin. The binding of the test compound was measured at either one concentration (% inhibition at 1 or 10 μM) or five different concentrations to determine affinity values (Ki). After 60 min incubation at 27° C., binding reaction was terminated by filtering through Multiscreen GF/C (Millipore) presoaked in 0.5% polyethyleneimine in Vacuum Manifold Station, followed by 3 washes with ice-cold filtration buffer containing 50 mM Tris-HCl, pH 7.4. Filter plates were dried at 60° C. for 1 hour and 30 μl of scintillation cocktail were added to each well before radioactivity reading. Readings were performed in a Trilux 1460 Microbeta radioactive counter (Perkin Elmer).

Test [2] concerns the target Human norepinephrine transporter (NET) (Homo sapiens, UniProt P23975). Put plainly: Binding assay to human norepinephrine transporter (NET) ([3H]-Nisoxetin). The following applies: human NET enriched membranes, [3H]-Nisoxetin 5 nM; read-out: Ki(nM) NET Hum. The protocol:
Binding Assay to Human Norepinephrine Transporter (NET)
Human norepinephrine transporter (NET) enriched membranes (5 μg) were incubated with 5 nM of radiolabeled [3H]-Nisoxetin in assay buffer containing 50 mM Tris-HCl, 120 mM NaCl, 5 mM KCl, pH 7.4. NSB (non specific binding) was measured by adding 10 μM of desipramine. The binding of the test compound was measured at either one concentration (% inhibition at 1 or 10 μM) or five different concentrations to determine affinity values (Ki). After 60 min incubation at 4° C., binding reaction was terminated by filtering through Multiscreen GF/C (Millipore) presoaked in 0.5% polyethyleneimine in Vacuum Manifold Station, followed by 3 washes with ice-cold filtration buffer containing 50 mM Tris-HCl, 0.9% NaCl, pH 7.4. Filter plates were dried at 60° C. for 1 hour and 30 μl of scintillation cocktail were added to each well before radioactivity reading. Readings were performed in a Trilux 1450 Microbeta radioactive counter (Perkin Elmer).

Human norepinephrine transporter (NET), sequence (P23975 whole entry): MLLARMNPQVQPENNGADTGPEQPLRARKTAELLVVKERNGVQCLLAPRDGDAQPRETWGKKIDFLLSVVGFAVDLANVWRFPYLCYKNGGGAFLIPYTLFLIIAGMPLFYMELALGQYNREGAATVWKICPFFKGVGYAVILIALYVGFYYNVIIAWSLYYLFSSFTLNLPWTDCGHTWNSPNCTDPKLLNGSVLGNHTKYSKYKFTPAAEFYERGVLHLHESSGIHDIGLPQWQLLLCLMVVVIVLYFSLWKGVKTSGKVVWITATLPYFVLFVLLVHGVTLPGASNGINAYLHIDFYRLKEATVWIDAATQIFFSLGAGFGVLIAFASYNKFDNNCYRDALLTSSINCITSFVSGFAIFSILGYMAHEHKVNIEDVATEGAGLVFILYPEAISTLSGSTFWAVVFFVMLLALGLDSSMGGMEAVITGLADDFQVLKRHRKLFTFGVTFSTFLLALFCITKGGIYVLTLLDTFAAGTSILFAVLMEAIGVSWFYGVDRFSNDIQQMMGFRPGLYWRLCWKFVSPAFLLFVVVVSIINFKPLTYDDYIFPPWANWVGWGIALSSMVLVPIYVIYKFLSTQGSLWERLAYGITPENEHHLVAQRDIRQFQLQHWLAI
Human α2δ-1 subunit of Cav2.2 calcium channel, sequence (P54289 25-1103): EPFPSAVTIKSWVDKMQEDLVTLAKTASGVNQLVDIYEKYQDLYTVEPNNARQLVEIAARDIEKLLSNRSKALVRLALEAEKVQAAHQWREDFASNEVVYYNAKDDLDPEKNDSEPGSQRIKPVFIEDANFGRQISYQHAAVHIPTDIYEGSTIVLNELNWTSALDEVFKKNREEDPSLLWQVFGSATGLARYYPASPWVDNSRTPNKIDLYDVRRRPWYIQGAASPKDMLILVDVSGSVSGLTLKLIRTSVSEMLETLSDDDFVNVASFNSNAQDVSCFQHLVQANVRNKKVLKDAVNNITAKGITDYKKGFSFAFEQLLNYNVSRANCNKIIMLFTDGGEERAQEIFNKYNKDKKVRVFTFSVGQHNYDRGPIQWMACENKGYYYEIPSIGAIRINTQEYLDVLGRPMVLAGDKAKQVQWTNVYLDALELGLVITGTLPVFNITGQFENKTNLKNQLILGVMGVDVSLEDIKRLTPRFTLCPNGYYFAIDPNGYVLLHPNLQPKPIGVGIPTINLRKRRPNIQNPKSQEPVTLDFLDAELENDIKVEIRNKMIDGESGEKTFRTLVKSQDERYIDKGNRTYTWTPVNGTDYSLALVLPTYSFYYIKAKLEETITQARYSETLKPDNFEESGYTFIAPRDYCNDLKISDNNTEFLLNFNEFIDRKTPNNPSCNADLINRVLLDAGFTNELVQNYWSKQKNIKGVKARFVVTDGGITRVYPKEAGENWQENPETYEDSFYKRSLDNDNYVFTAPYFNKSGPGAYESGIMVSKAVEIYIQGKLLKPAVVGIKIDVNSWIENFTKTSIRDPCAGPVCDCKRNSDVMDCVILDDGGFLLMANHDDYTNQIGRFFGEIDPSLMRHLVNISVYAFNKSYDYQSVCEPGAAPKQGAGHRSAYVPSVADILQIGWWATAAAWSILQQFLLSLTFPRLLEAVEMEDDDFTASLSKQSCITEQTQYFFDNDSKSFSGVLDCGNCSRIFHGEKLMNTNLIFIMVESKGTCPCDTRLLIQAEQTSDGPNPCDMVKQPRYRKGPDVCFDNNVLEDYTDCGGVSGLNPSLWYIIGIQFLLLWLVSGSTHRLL

For `CNCC[C@H](Oc1cnc(CN2CCN(C)c3ncccc3C2=O)c(F)c1)c1ccccc1` [Example 1, (S)-4-((3-Fluoro-5-(3-(methylamino)-1-phenylpropoxy)pyridin-2-yl)methyl)-1-methyl-1,2,3,4-tetrahydro-5H-pyrido[2,3-e][1,4]diazepin-5-one], the Ki in test [1] and in test [2] was under 100 nM throughout.
Consider `CNCC[C@H](Oc1cnc(CN2CCN(C)c3ncc(F)cc3C2=O)c(F)c1)c1cccc(F)c1` [Example 2, (S)-7-fluoro-4-((3-fluoro-5-(1-(3-fluorophenyl)-3-(methylamino)propoxy)pyridin-2-yl)methyl)-1-methyl-1,2,3,4-tetrahydro-5H-pyrido[2,3-e][1,4]diazepin-5-one], for which the Ki in test [1] is 100 to 500 nM; in test [2], under 100 nM.
Regarding `CNCC[C@H](Oc1cnc(CN2CCN(C)c3nc(N)ccc3C2=O)c(F)c1)c1cccc(F)c1` [Example 3, (S)-8-amino-4-((3-fluoro-5-(1-(3-fluorophenyl)-3-(methylamino)propoxy)pyridin-2-yl)methyl)-1-methyl-1,2,3,4-tetrahydro-5H-pyrido[2,3-e][1,4]diazepin-5-one], the Ki in test [1] and in test [2] was under 100 nM in each case.
Consider `CCNc1ccc2c(n1)N(C)CCN(Cc1ncc(O[C@@H](CCNC)c3cccc(F)c3)cc1F)C2=O` [Example 4, (S)-8-(ethylamino)-4-((3-fluoro-5-(1-(3-fluorophenyl)-3-(methylamino)propoxy)pyridin-2-yl)methyl)-1-methyl-1,2,3,4-tetrahydro-5H-pyrido[2,3-e][1,4]diazepin-5-one], for which the Ki in test [1] and in test [2] was under 100 nM each time.
With `CNCC[C@H](Oc1cnc(CN2CCN(C)c3ncccc3C2=O)c(Cl)c1)c1cccc(F)c1` [Example 5, (S)-4-((3-chloro-5-(1-(3-fluorophenyl)-3-(methylamino)propoxy)pyridin-2-yl)methyl)-1-methyl-1,2,3,4-tetrahydro-5H-pyrido[2,3-e][1,4]diazapin-5-one], the Ki in test [1] and in test [2] was under 100 nM in each case.
In the case of `CNCC[C@H](Oc1cnc(CN2CCN(C)c3cnc(OC)cc3C2=O)c(F)c1)c1cccc(F)c1` [Example 6, (S)-4-((3-fluoro-5-(1-(3-fluorophenyl)-3-(methylamino)propoxy)pyridin-2-yl)methyl)-7-methoxy-1-methyl-1,2,3,4-tetrahydro-5H-pyrido[3,4-e][1,4]diazepin-5-one], the Ki in test [1] and in test [2] was under 100 nM throughout.
`CNCC[C@H](Oc1cnc(CN2CCN(C)c3ncccc3C2=O)c(F)c1)c1cccc(F)c1` [Example 7, (S)-4-((3-fluoro-5-(1-(3-fluorophenyl)-3-(methylamino)propoxy)pyridin-2-yl)methyl)-1-methyl-1,2,3,4-tetrahydro-5H-pyrido[2,3-e][1,4]diazepin-5-one]: the Ki in test [1] was 100 to 500 nM; in test [2] it was under 100 nM.
For the molecule `CNCC[C@H](Oc1cnc(CN2CCN(C)c3ncccc3C2=O)c(F)c1)c1cccs1` [Example 8, (S)-4-((3-Fluoro-5-(3-(methylamino)-1-(thiophen-2-yl)propoxy)pyridin-2-yl)methyl)-1-methyl-1,2,3,4-tetrahydro-5H-pyrido[2,3-e][1,4]diazepin-5-one], the Ki in test [1] was 100 to 500 nM; in test [2], under 100 nM.

The values are drawn from patent US20210395249A1, “NEW ALKOXYAMINOPYRIDINE DERIVATIVES FOR TREATING PAIN AND PAIN RELATED CONDITIONS” (ESTEVE PHARMACEUTICALS, S.A., priority 2018, published 2021).
